Assay results: patent US20070185078A1, “Substituted triazole derivatives as oxytocin antagonists” (priority 2004, published 2007)

Molecular target: T1, Oxytocin Receptor (CHO-OTR/NFAT-β-Lactamase cells) (Homo sapiens, UniProt P30559)
T1 construct: expressed in transfected cells; host or cells: CHO (CHO-OTR cell line further transfected with the NFAT-β-lactamase reporter)
T1 sequence (P30559 1-389): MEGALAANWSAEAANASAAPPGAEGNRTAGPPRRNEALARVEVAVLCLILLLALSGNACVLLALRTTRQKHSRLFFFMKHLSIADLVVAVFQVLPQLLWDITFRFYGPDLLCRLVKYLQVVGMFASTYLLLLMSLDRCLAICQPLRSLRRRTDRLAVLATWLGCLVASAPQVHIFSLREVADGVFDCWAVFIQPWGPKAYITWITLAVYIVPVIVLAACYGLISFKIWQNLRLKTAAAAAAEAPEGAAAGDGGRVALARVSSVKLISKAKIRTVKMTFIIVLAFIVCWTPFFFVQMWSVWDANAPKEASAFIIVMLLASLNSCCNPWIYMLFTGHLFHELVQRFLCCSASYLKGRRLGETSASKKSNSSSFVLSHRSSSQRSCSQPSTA
Experiment: Oxytocin Receptor Beta-Lactamase Assay
Assay type: cell-based
Settings: oxytocin stimulation 4 hours, read-out: oxytocin antagonist activity, expressed as a Ki value
Procedure: A suitable assay for determining the oxytocin antagonist activity of a compound is detailed herein below.
Oxytocin Receptor Beta-Lactamase Assay
Cells used are CHO-OTR/NFAT-β-Lactamase. The NFAT-β-lactamase expression construct was transfected into the CHO-OTR cell line and clonal populations were isolated via fluorescence activated cell sorting (FACS). An appropriate clone was selected to develop the assay. […]
Cells grown at 80-90% confluence were harvested and counted. […]
Preparation of 1 ml of 6× Loading Buffer with Enhanced Loading Protocol (this requires scale-up according to number of plates to be screened) • 12 μl of solution A (1 mM CCF4-AM in Dry DMSO) was added to 60 μl of solution B (100 mg/ml Pluronic-F127 in DMSO+0.1% Acetic Acid) and vortexed. • The resulting solution was added to 925 μl of solution C (24% w/w PEG400, 18% TR40 v/v in water). • 75 μl of solution D was added (200 mM probenecid in 200 mM NaOH). • 10 μl of 6× Loading Buffer was added to all wells and incubated for 1.5 hrs-2 hrs at room temperature in the dark. • The plates were read using an LJL Analyst, Excitation 405 nm, Emission 450 nm and 530 nm, gain optimal, lagtime 0.40 μs integration, 4 flashes, bottom reading.

In the case of `COC(=O)N1Cc2nc(OC)ccc2-n2c(nnc2-c2ccc(-c3ccccc3OC)cc2)C1` [Example 8], the Ki is reported as 3 nM.
